Values of other authors, collected in PMC2074382 (British Journal of Cancer, 1996).

Experiments:
[1] = clinical; cited from earlier work
[2] = set-up: method as in PMID 5081595, PMID 8137244; settings: in vitro and in vivo pharmacology; cited from earlier work
[3] = set-up: method as in Rowinsky et al., 1992; Verweij et al., 1993; settings: daily x 5 schedule; ref Rowinsky et al., 1992; Verweij et al., 1993; cited from earlier work

SMILES: CCc1c2c(nc3ccc(OC(=O)N4CCC(N5CCCCC5)CC4)cc13)-c1cc3c(c(=O)n1C2)COC(=O)[C@]3(O)CC [Irinotecan]
- induced toxicity [1]: neutropenia in addition to diarrhoea

SMILES: CC[C@@]1(O)C(=O)OCc2c1cc1n(c2=O)Cc2cc3c(CN(C)C)c(O)ccc3nc2-1 [topotecan]
- potency relative to GI147211 (fold less potent) [2]: 2.2 fold
- dose-limiting toxicity [3]: myelosuppression
